Calls of active or inactive are those of the source. The rule behind the calls is not given here.

Data on seven compounds can be found in ChEMBL document CHEMBL6114971, “Design, synthesis and biological evaluation of benzo[b]thiophene analogues as novel ferroptosis inhibitor that inhibit fibrosarcoma cell proliferation” (Bioorg Med Chem, 2025).

The test system of series [1] is HT-1080. Briefly: Antiproliferative activity against human HT-1080 cells measured after 72 hrs by MTT assay. It counts as functional, cell-based. To be noted: HT-1080, 72 h.
Another series has as its system 4T1. The series is described as follows: Antiproliferative activity against mouse 4T1 cells measured after 72 hrs by MTT assay. It counts as functional, cell-based. The note with it: 4T1, 72 h.
Series [2] has as its system HT-1080. The series is described as follows: Antiproliferative activity against human HT-1080 cells measured after 72 hrs in presence of ferroptosis inhibitor Fer-1 by MTT assay. It counts as functional, cell-based. To be noted: HT-1080, 72 h.
Series [3] is described as follows: Cytotoxicity against HUVEC measured after 72 hrs by MTT assay. To be noted: human. It counts as toxicity, cell-based.
The nature of series [4]: Selectivity index, ratio of IC50 for human GES1 cells to IC50 for human HT-1080. It counts as toxicity. The note with it: GES1 cells versus HT-1080 cells, read-out: Ratio IC50.
A short description of series [5]: Selectivity ratio of IC50 for antiproliferative activity against human HT-1080 cells in presence of ferroptosis inhibitor Fer-1 to IC50 for antiproliferative activity against human HT-1080 cells. It counts as functional.
The test system of a further series is A549. The series is described as follows: Antiproliferative activity against human A549 cells measured after 72 hrs by MTT assay. It counts as functional, cell-based. To be noted: A549, 72 h.
Series [6] addresses T1, Phospholipid hydroperoxide glutathione peroxidase GPX4 (Homo sapiens) (UniProt P36969).
T1 sequence (whole entry): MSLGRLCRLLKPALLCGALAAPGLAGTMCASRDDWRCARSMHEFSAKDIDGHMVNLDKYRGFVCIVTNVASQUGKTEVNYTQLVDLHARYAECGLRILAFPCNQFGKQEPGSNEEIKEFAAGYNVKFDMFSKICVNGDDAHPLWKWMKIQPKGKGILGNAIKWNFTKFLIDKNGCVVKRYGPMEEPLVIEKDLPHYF
The series is described as follows: Inhibition of GPX4 activity in human HT-1080 cells assessed as down regulation of GPX4 level at 2 uM measured after 24 hrs by Western blotting analysis. It counts as cell-based.

A short description of series [7]: Cytotoxicity against human GES1 cells measured after 72 hrs by MTT assay. It counts as toxicity, cell-based.
In another series the test system is MGC-803. Briefly: Antiproliferative activity against human MGC-803 cells measured after 72 hrs by MTT assay. It counts as functional, cell-based. To be noted: MGC-803, 72 h.
Series [8] in a line: Selectivity index, ratio of IC50 for HUVEC to IC50 for human HT-1080. It counts as toxicity. The note with it: HUVEC versus HT-1080 cells, read-out: Ratio IC50.
Series [9] relates to HT-1080. Briefly: Induction of ferroptosis in human HT-1080 cells assessed as reduction in GSH level measured after 24 hrs. It counts as functional, cell-based. To be noted: dose 0.5-4 µM.
Series [10] deals with HT-1080. Briefly: Induction of ROS generation in human HT-1080 cells assessed as intracellular ROS level at 0.5 uM measured after 24 hrs by DCFH-DA probe based flow cytometry (reference value: 33%). It counts as functional.
Series [11] deals with HT-1080. Briefly: Cell cycle arrest in human HT-1080 cells assessed as accumulation of cells at S-phase at 1 uM measured after 24 hrs by propidium iodide staining based flow cytometry (reference value: 21.1%). It counts as functional.
Series [12] deals with HT-1080. The series is described as follows: Cell cycle arrest in human HT-1080 cells assessed as accumulation of cells at G2/M-phase at 2 uM measured after 24 hrs by propidium iodide staining based flow cytometry (reference value: 27%). It counts as functional.
Series [13] deals with HT-1080. Briefly: Induction of ferroptosis in human HT-1080 cells assessed as increase in intracellular Fe2+ level measured after 24 hrs. It counts as functional, cell-based. The note with it: dose 0.5-4 µM.
Series [14] deals with HT-1080. Briefly: Cell cycle arrest in human HT-1080 cells assessed as accumulation of cells at S-phase at 2 uM measured after 24 hrs by propidium iodide staining based flow cytometry (reference value: 21.1%). It counts as functional.
In series [15] the test system is HT-1080. The series is described as follows: Cell cycle arrest in human HT-1080 cells assessed as accumulation of cells at G1-phase at 0.5 uM measured after 24 hrs by propidium iodide staining based flow cytometry (reference value: 51.3%). It counts as functional.
The test system of series [16] is HT-1080. Briefly: Induction of ROS generation in human HT-1080 cells assessed as intracellular ROS level at 2 uM measured after 24 hrs in presence of ferroptosis inhibitor Fer-1 by DCFH-DA probe based flow cytometry (reference value: 33%). It counts as functional.
The subject of series [17] is HT-1080. Briefly: Cell cycle arrest in human HT-1080 cells assessed as accumulation of cells at G1-phase at 1 uM measured after 24 hrs by propidium iodide staining based flow cytometry (reference value: 51.3%). It counts as functional.
Series [18] deals with HT-1080. The series is described as follows: Cell cycle arrest in human HT-1080 cells assessed as accumulation of cells at G2/M-phase at 1 uM measured after 24 hrs by propidium iodide staining based flow cytometry (reference value: 27%). It counts as functional.
Series [19] has as its system HT-1080. The series is described as follows: Induction of ROS generation in human HT-1080 cells assessed as intracellular ROS level at 1 uM measured after 24 hrs by DCFH-DA probe based flow cytometry (reference value: 33%). It counts as functional.
Series [20] relates to HT-1080. Briefly: Cell cycle arrest in human HT-1080 cells assessed as accumulation of cells at G1-phase at 2 uM measured after 24 hrs by propidium iodide staining based flow cytometry (reference value: 51.3%). It counts as functional.
For series [21], the target named is T1, Phospholipid hydroperoxide glutathione peroxidase GPX4 (Homo sapiens). Briefly: Inhibition of GPX4 activity in human HT-1080 cells assessed as down regulation of GPX4 level measured after 24 hrs by Western blotting analysis. It counts as cell-based. The note with it: dose 0.25-4 µM.
Series [22] deals with HT-1080. The series is described as follows: Induction of ferroptosis in human HT-1080 cells assessed as increase in MDA level measured after 24 hrs. It counts as functional, cell-based. To be noted: dose 0.5-4 µM.
Series [23] deals with HT-1080. Briefly: Cell cycle arrest in human HT-1080 cells assessed as accumulation of cells at G2/M-phase at 0.5 uM measured after 24 hrs by propidium iodide staining based flow cytometry (reference value: 27%). It counts as functional.
Series [24] deals with HT-1080. The series is described as follows: Reduction in GPX4 mRNA level in human HT-1080 cells measured after 24 hrs by qRT-PCR analysis. It counts as functional, cell-based. The note with it: dose 0.5-4 µM.
Series [25] deals with HT-1080. Briefly: Cell cycle arrest in human HT-1080 cells assessed as accumulation of cells at S-phase at 0.5 uM measured after 24 hrs by propidium iodide staining based flow cytometry (reference value: 21.1%). It counts as functional.
For series [26], the system named is HT-1080. Briefly: Induction of ROS generation in human HT-1080 cells assessed as increase in intracellular ROS level measured after 24 hrs by DCFH-DA probe based flow cytometry. It counts as functional, cell-based. To be noted: dose 0.5-2 µM.
For series [27], the system named is HT-1080. Briefly: Induction of ROS generation in human HT-1080 cells assessed as intracellular ROS level at 2 uM measured after 24 hrs by DCFH-DA probe based flow cytometry (reference value: 33%). It counts as functional.
The test system of series [28] is HT-1080. Briefly: Reduction in GPX4 mRNA level in human HT-1080 cells at 2 uM measured after 24 hrs by qRT-PCR analysis. It counts as functional, cell-based.

`COc1cc(N(Cc2cc3ccccc3s2)C(=O)CCl)cc(OC)c1OC`: the IC50 was 3.59 µM in the series on HT-1080 [1]; greater than 20 µM with 4T1; 4.13 µM with HT-1080 [2]; greater than 20 µM in the series with A549; 2.08 µM in the series with MGC-803. Moreover, the 50% inhibitory concentration (IC50) at 72 h in [3] was found to be 10.5 µM; in series [7], 68.8 µM. In addition, the selectivity ratio was determined as 18.4 in series [4] and 2.8 in series [8]. Further, the “Ratio IC50” value in [5] was determined as 1.15. Besides, in series [6], the inhibition entry is “Active; Significant Down Regulation Observed”.
`COc1cc(N(Cc2csc3ccccc23)C(=O)CCl)cc(OC)c1OC`: the 50% inhibitory concentration (IC50) with HT-1080 [1] stood at 0.94 µM; in the series on 4T1, 16.1 µM; with HT-1080 [2], 3.03 µM; in the series on A549, 17.2 µM; with MGC-803, 4.48 µM. Further, the Activity entry in the series with HT-1080 [9] is “Dose-dependent-effect”; in the series with HT-1080 [10], 33%; in the series with HT-1080 [11] it was 37%; in the series with HT-1080 [12] it was 23.9%; in the series on HT-1080 [13], “Dose-dependent-effect”; in the series on HT-1080 [14] it was 40.7%. Besides, the Activity with HT-1080 [15] is 48%; in the series on HT-1080 [16], 31.2%; with HT-1080 [17], 38.8%; in the series on HT-1080 [18], 23.8%; in the series with HT-1080 [19], 64.2%; in the series with HT-1080 [20], 35.5%. In addition, the Activity result is “Dose-dependent-effect” in the series on HT-1080 [22]; 23.1% in the series on HT-1080 [23]; “Dose-dependent-effect” with HT-1080 [24]; 28.5% in the series on HT-1080 [25]; “Dose-dependent-effect” in the series on HT-1080 [26]; 88.5% with HT-1080 [27]. Also, the 50% inhibitory concentration (IC50) at 72 h in [3] was 26.1 µM; in series [7], 103 µM. Moreover, the selectivity ratio was found to be 109 in series [4] and 27.7 in series [8]. Also, the “Ratio IC50” value in [5] was determined as 3.21. Moreover, the figures for the inhibition entry in series [21] and in [6] were “Dose-dependent-effect” and “Active; Significant Down Regulation Observed”, respectively.
`COC(=O)c1ccc([C@H]2c3[nH]c4ccccc4c3C[C@H](C(=O)OC)N2C(=O)CCl)cc1`: the IC50 in the series with 4T1 is 18.4 µM; in the series on HT-1080 [2] it was 2.28 µM; in the series on A549, greater than 20 µM; in the series on MGC-803, 12.2 µM. Further, the IC50 at 72 h was found to be 32.1 µM in series [3] and 62.3 µM in series [7]. In addition, the values for the selectivity ratio in [4] and in series [8] were 51.5 and 26.6, respectively. For the same compound, in series [5], the “Ratio IC50” value was 1.88. Moreover, the outcome with HT-1080 [28] was Active. Moreover, the inhibition entry in [6] was “Active”. In the series with HT-1080 [27], the Activity was 87.6%.
In the case of `CCCCN(Cc1cc2ccccc2s1)C(=O)CCl`, the IC50 in the series on HT-1080 [1] is 3.73 µM; in the series on 4T1 it was 5.31 µM; with HT-1080 [2] it was 6 µM; with A549 it was greater than 20 µM; with MGC-803, greater than 20 µM. Also, the 50% inhibitory concentration (IC50) at 72 h in [3] turned out to be 8.58 µM; in series [7], 123 µM. Further, the selectivity ratio in [4] was 30.9; in [8] it was 2.15. In [5], the “Ratio IC50” value was determined as 1.5. Further, the inhibition result in [6] was “Active; Significant Down Regulation Observed”.
For `COc1cc(N(C)Cc2csc3ccccc23)cc(OC)c1OC`, the result in the series with HT-1080 [28] was inactive.
Take `COc1cc(N(Cc2ccsc2)C(=O)CCl)cc(OC)c1OC`: the IC50 is 3.61 µM in the series on HT-1080 [1]; 11.2 µM with 4T1; 6.3 µM in the series with HT-1080 [2]; greater than 20 µM with A549; 14.1 µM with MGC-803. Further, the IC50 at 72 h turned out to be 15.4 µM in series [3] and 62.3 µM in series [7]. In addition, the selectivity ratio in series [4] turned out to be 17.3; in series [8] it was 4.27. The “Ratio IC50” value in [5] is on record as 1.74. Besides, the inhibition entry in series [6] is on record as “Active; Significant Down Regulation Observed”.
On to `COc1ccc(N(Cc2csc3ccccc23)C(=O)c2noc(C)c2[N+](=O)[O-])cc1OC`, for which the half-maximal inhibitory concentration (IC50) in the series with HT-1080 [1] was 5.25 µM; with 4T1, 3.48 µM; with HT-1080 [2] it was 15.6 µM; in the series on A549 it was greater than 20 µM; with MGC-803 it was greater than 20 µM. Also, the 50% inhibitory concentration (IC50) at 72 h was determined as 31.8 µM in [3] and 87.3 µM in series [7]. The selectivity ratio turned out to be 16.6 in [4] and 6.06 in series [8]. In addition, the “Ratio IC50” value in [5] amounted to 2.98. The inhibition entry in series [6] was “Active; Significant Down Regulation Observed”.
